From patent US20220095648A1, “USE OF A THRAUSTOCHYTRID BIOMASS FOR MAINTAINING GUT BARRIER FUNCTION” (priority 2019, published 2022)

What was measured:
Caco-2 cells [1] = experiment: TER of Caco-2 cells exposed to DON; format: cell-based
Procedure: Caco-2 cells were used as a model of intestinal epithelial cells. Cells were routinely grown in culture media (DMEM) supplemented with 10% fetal calf serum and 1% antibiotics (streptomycin penicillin solution). Cells were grown in 75 cm^2 ventilated flasks maintained at 37° C. in a 5% CO2 incubator. Cells were routinely passaged using trypsin-EDTA solution. For the assay, cells were seeded onto 12-well inserts (Thincert, Greiner, pore size 0.4 μm) at an initial density of 200,000 cells/cm^2 and let to differentiate for 10-14 days post-seeding before being used, with medium changes every two days. Cell differentiation was confirmed by reading the TER, using a Volt/Ohm meter (Millipore), at the beginning of the experiment, when the TER value reached 600 Ohm/cm^2. […]
After differentiation, Caco-2 cells were put in contact, during 48 or 72 h, with or without DON at different concentrations (0, 6.25, 12.5, 25, 50 or 100 μM), and with activated charcoal at 1% (w/v) as positive control, or with or without one of the microalgae preparation type at different concentrations (1, 5, or 20% v:v, final dilution), each added on the apical side. At the end of the incubation time, the TER was measured using a Volt/Ohm meter (Millipore), and results were expressed in percentages of the control put in contact with the same concentration of DON but not with the tested product (microalgae or charcoal). […]

Caco-2 cells [2] = experiment: D-glucose total and passive uptake by Caco-2 cells exposed to DON; format: cell-based; conditions: DON 10 μM alone
From the text: (§1) In order to test the ability of microalgae to reduce/prevent the effect of DON on nutrient absorption through epithelial cells, Caco-2 cells were exposed to a metabolically active dose of DON, in the absence or presence of Aurantiochytrium mangrovei FCC1325 microalgae (lyophilized microalgae “ML”, or digested lyophilized microalgae “MLD”), at a dose of 1% or 5%. Two main types of nutrients were considered (i.e. glucose and amino acids—more particularly Methionine, Lysine and Threonine), and the following measurements were carried out: • For glucose (D-Glc): passive, active (regulated by the sodium-dependent SGLT-1 transporter) and total (active+passive) absorption • For amino acids (L-Methionine, L-Lysine and L-Threonine): passive, active (regulated by sodium-dependent transport) and total (active+passive) absorption
(§2) Briefly, Caco-2 cells were cultured and seeded onto 12-well inserts, as described in Example 1, and then let to differentiate for 16-21 days post-seeding before being used, with medium changes every two days. When differentiated, Caco-2 cells were incubated or not with DON at 10 μM (apically added), in the absence or presence of 1 or 5% (v:v final dilution, apically added) of microalgae preparation (ML or MLD). Both ML and MLD powders were resuspended initially at 0.8 mg/ml in buffer (fresh culture medium of the microalgae). Caco-2 cells were incubated for 12, 24 or 48 hours before nutrient uptake was measured.
(§3) At the end of the incubation period, inserts were washed twice with PBS++. Inserts were then washed twice with uptake buffer (Ringer Hepes buffer) with or without sodium. Uptake buffer composition was: • Ringer Hepes buffer with sodium (called “+Na+”): 137 mmol/L NaCl, 5.36 mmol/L KCl, 0.4 mmol/L Na2HPO4, 0.8 mmol/L MgCl2, 1.8 mmol/L CaCl2, 20 mmol/L N-2-hydroxyethylpiperazine-N-2-ethanesulfonic acid (HEPES), pH being adjusted to pH 7.4 with NaOH; or • Ringer Hepes buffer without sodium (called “—Na+”): 137 mmol/L Choline chloride (instead of sodium chloride), 5.36 mmol/L KCl, 0.4 mmol/L K2HPO4 (instead of Na2HPO4), 0.8 mmol/L MgCl2, 1.8 mmol/L CaCl2, 20 mmol/L N-2-hydroxyethylpiperazine-N-2-ethanesulfonic acid (HEPES), pH being adjusted to pH 7.4 with KOH.
(§4) After an equilibration period of 15 min at 37° C., uptake assay was initiated by the addition of D-Glc, L-Lysine, L-Methionine or L-Threonine diluted in the appropriate Ringer Hepes buffer (400 μl) and added apically onto Caco-2 inserts (final concentration of 100 μM of D-Glc and 400 μM for amino-acids), the basolateral compartment being filled with 400 μl of buffer. Inserts were kept incubated at 37° C. during the uptake assay. After 15 minutes incubation, 30 μl of media were collected from apical or basolateral compartments and stored at −20° C. until nutrient quantification. Residual concentrations of D-Glc or L-amino acid present in the apical compartments were measured using enzyme-based quantification assay kits (Glucose Colorimetric/Fluorometric Assay Kit, Sigma-Aldrich).
(§5) Uptakes were expressed as: • Total uptake: uptake measured (either measured residual apical concentration or calculated absorbed (intracellular+basolateral) concentration) in Ringer Hepes buffer with Na+corresponding to the activity of sodium-dependent and sodium-independent transporters; • Passive uptake: uptake measured in Ringer Hepes buffer without Na+corresponding to only passive/sodium-independent transporters; • Active uptake: uptake calculated by subtracting passive uptake to total uptake.

[3] = system: sodium-dependent SGLT-1 transporter; experiment: SGLT-1 mediated (active) D-glucose uptake by Caco-2 cells exposed to DON; format: cell-based; conditions: DON 10 μM alone, total minus passive
From the text: as §1
as §2, with “Both ML and MLD powders were resuspended initially at 0.8 mg/ml in buffer (fresh culture medium of the microalgae).” left out, “measured. […]” for “measured.”
as §4, with “Inserts were kept incubated at 37° C. during the uptake assay.” left out, “Sigma-Aldrich). […]” for “Sigma-Aldrich).”

Caco-2 cells [4] = experiment: L-Lysine uptake by Caco-2 cells exposed to DON; format: cell-based; conditions: for % of inhibition by DON, Passive uptake (−Na) / % of inhibition by DON, Total uptake (+Na) / % of inhibition by DON, Active transport: L-Lysine, DON 10 μM alone; for % of inhibition by DON, Active transport: total minus passive
From the text: as §1, §2, §3, §4, §5

Caco-2 cells [5] = experiment: L-Methionine uptake by Caco-2 cells exposed to DON; format: cell-based; conditions: for % of inhibition by DON, Passive uptake (−Na) / % of inhibition by DON, Total uptake (+Na) / % of inhibition by DON, Active transport: L-Methionine, DON 10 μM alone; for % of inhibition by DON, Active transport: total minus passive
From the text: as §1, §2, §3, §4, §5

Caco-2 cells [6] = experiment: L-Threonine uptake by Caco-2 cells exposed to DON; format: cell-based; conditions: DON 10 μM alone; for % of inhibition by DON, Active transport: total minus passive
From the text: as §1, §2, §3, §4, §5

Caco-2 cells [7] = experiment: Nutrient uptake by Caco-2 cells exposed to DON (overall conclusion); format: cell-based; conditions: DON at 10 μM
Procedure: In order to test the ability of microalgae to reduce/prevent the effect of DON on nutrient absorption through epithelial cells, Caco-2 cells were exposed to a metabolically active dose of DON, in the absence or presence of Aurantiochytrium mangrovei FCC1325 microalgae (lyophilized microalgae “ML”, or digested lyophilized microalgae “MLD”), at a dose of 1% or 5%. […]
Briefly, Caco-2 cells were cultured and seeded onto 12-well inserts, as described in Example 1, and then let to differentiate for 16-21 days post-seeding before being used, with medium changes every two days. […] Caco-2 cells were incubated for 12, 24 or 48 hours before nutrient uptake was measured. […]
as §4, with “Inserts were kept incubated at 37° C. during the uptake assay.” left out, “Sigma-Aldrich). […]” for “Sigma-Aldrich).”

Ross 308 broilers [8] = experiment: Colon length and colon mucosa aspect in DSS-treated broiler chickens; format: in vivo; conditions: DSS in drinking water, control diet
From the text: (§6) Material and Methods: • Experimental animals: Day-of-hatch male Ross 308 broilers were obtained from a local hatchery, placed in floor pens until 6 days of age, and provided heat to maintain an age-appropriate temperature. Chicks were provided ad libitum access to water and the balanced experimental diets meeting the poultry nutrition requirements recommended for Ross 308 broilers during the starter period from 1 to 16 days of age. • Experimental diets: A basal starter diet (CON) in the form of short pellets was formulated based on wheat, corn, and soybean meal (Table 14). The other experimental diets were formulated to contain 5% microalgae Aurantiochytrium mangrovei (MAG-5) or 2% curcumin (CUM-2) by replacing part of the cereal, protein or oil content. […]
(§7) • Dextran Sulfate Sodium (DSS) administration: DSS was used to increase intestinal permeability in broilers, by inducing epithelium damage. […] Fluorescence levels of diluted plasma (1:4 in saline solution 0.9% NaCl) were measured at an excitation wavelength of 485 nm and emission wavelength of 528 nm (BIOTEK synergie H1), and FITC-dextran concentration per mL of plasma was calculated based on a standard curve. • At the time of euthanisa, the colon was collected for morphometry. […] The colon (from the ileocecal junction to the cloaca) was then excised and its length was measured.

Ross 308 broilers [9] = experiment: Gut permeability: FITC-dextran in plasma of DSS-treated broiler chickens; format: in vivo; conditions: DSS administration, control diet; blood 1 h after oral gavage
From the text: as §6, §7

Compound: CC1=C[C@H]2O[C@@H]3[C@H](O)C[C@](C)([C@@]2(CO)[C@H](O)C1=O)[C@]31CO1 [DON, Deoxynivalenol]
- effect of DON only on the TER (Caco-2 cells [1]; DON 6.25-100 μM, more pronounced as concentration increased): induced a reduction of the TER
- IC50 (Caco-2 cells [1]; IC50 of DON on TER, control without tested product, 48 h): 11 µM
- % of inhibition by DON, Passive uptake (−Na) (Caco-2 cells [2]; 12 h): 6.4%
- % of inhibition by DON, Total uptake (+Na) (Caco-2 cells [2]; 12 h): 9.3%
- % of inhibition by DON, Passive uptake (−Na) (Caco-2 cells [2]; 24 h): 22.2%
- % of inhibition by DON, Total uptake (+Na) (Caco-2 cells [2]; 24 h): 29.4%
- % of inhibition by DON, Passive uptake (−Na) (Caco-2 cells [2]; 48 h): 21.6%
- % of inhibition by DON, Total uptake (+Na) (Caco-2 cells [2]; 48 h): 28.8%
- % of inhibition by DON, SGLT-1 mediated ([3]; 12 h): 19.2%
- % of inhibition by DON, SGLT-1 mediated ([3]; 24 h): 52.3%
- % of inhibition by DON, SGLT-1 mediated ([3]; 48 h): 51.4%
- effect of DON on active L-Lys uptake (Caco-2 cells [4]; 48 h incubation, DON alone): stimulated
- % of inhibition by DON, Passive uptake (−Na) (Caco-2 cells [4]; 12 h): −6.1%
- % of inhibition by DON, Total uptake (+Na) (Caco-2 cells [4]; 12 h): −5.2%
- % of inhibition by DON, Active transport (Caco-2 cells [4]; 12 h): 57.5%
- % of inhibition by DON, Passive uptake (−Na) (Caco-2 cells [4]; 24 h): −10.1%
- % of inhibition by DON, Total uptake (+Na) (Caco-2 cells [4]; 24 h): −5.2%
- % of inhibition by DON, Active transport (Caco-2 cells [4]; 24 h): 44.2%
- % of inhibition by DON, Passive uptake (−Na) (Caco-2 cells [4]; 48 h): −6.6%
- % of inhibition by DON, Total uptake (+Na) (Caco-2 cells [4]; 48 h): −9.4%
- % of inhibition by DON, Active transport (Caco-2 cells [4]; 48 h): −102.3%
- effect of DON on L-Met active uptake (Caco-2 cells [5]; 12 h incubation): stimulated
- effect of DON on active L-Met uptake (Caco-2 cells [5]; 48 h incubation, DON alone): stimulated
- % of inhibition by DON, Passive uptake (−Na) (Caco-2 cells [5]; 12 h): −2.2%
- % of inhibition by DON, Total uptake (+Na) (Caco-2 cells [5]; 12 h): −9.6%
- % of inhibition by DON, Active transport (Caco-2 cells [5]; 12 h): −256.0%
- % of inhibition by DON, Passive uptake (−Na) (Caco-2 cells [5]; 24 h): −4.9%
- % of inhibition by DON, Total uptake (+Na) (Caco-2 cells [5]; 24 h): −12.9%
- % of inhibition by DON, Passive uptake (−Na) (Caco-2 cells [5]; 48 h): 1.8%
- % of inhibition by DON, Total uptake (+Na) (Caco-2 cells [5]; 48 h): −4.1%
- % of inhibition by DON, Active transport (Caco-2 cells [5]; 48 h): −102.4%
- % of inhibition by DON, Passive uptake (−Na) (Caco-2 cells [6]; 12 h): −9.5%
- % of inhibition by DON, Total uptake (+Na) (Caco-2 cells [6]; 12 h): −6.3%
- % of inhibition by DON, Active transport (Caco-2 cells [6]; 12 h): 56.5%
- % of inhibition by DON, Passive uptake (−Na) (Caco-2 cells [6]; 24 h): −9.5%
- % of inhibition by DON, Total uptake (+Na) (Caco-2 cells [6]; 24 h): −6.3%
- % of inhibition by DON, Active transport (Caco-2 cells [6]; 24 h): 56.5%
- % of inhibition by DON, Passive uptake (−Na) (Caco-2 cells [6]; 48 h): −16.9%
- % of inhibition by DON, Total uptake (+Na) (Caco-2 cells [6]; 48 h): −14.5%
- % of inhibition by DON, Active transport (Caco-2 cells [6]; 48 h): 76.4%
- effect of DON on intestinal nutrient uptake (Caco-2 cells [7]): alters intestinal nutrient uptake

Compound: Dextran Sulfate Sodium [DSS]
- length of the colon (Ross 308 broilers [8]; 16-day old chickens, compared with group without DSS): significantly increased
- visual observation of the colon mucosa (Ross 308 broilers [8]; compared with DSS- control group): thinner, translucent, and more fragile
- flow of FITC-dextran through the gut barrier (Ross 308 broilers [9]): significantly increased
